How the values were obtained:
Settings in all cases: 72 h
Calu-3 [1] = test: drug sensitivity score (DSS) for viability; higher = more toxic; extreme values may be limits of the assay
HepG2 [2] = test: as above
U2OS [3] = test: as above
Caco-2 [4] = test: as above
Vero E6 [5] = test: as above
Calu-3 [6] = test: relative viability EC50 (midpoint between 100% and the lowest measured viability); higher = less toxic
HepG2 [7] = test: as above
U2OS [8] = test: as above
Caco-2 [9] = test: as above
Vero E6 [10] = test: as above
Calu-3 [11] = test: cell viability relative to DMSO; higher = less toxic
HepG2 [12] = test: as above
U2OS [13] = test: as above
Caco-2 [14] = test: as above
Vero E6 [15] = test: as above

SMILES	drug sensitivity score (Calu-3 [1])	drug sensitivity score (HepG2 [2])	drug sensitivity score (U2OS [3])	drug sensitivity score (Caco-2 [4])	drug sensitivity score (Vero E6 [5])	relative viability EC50 (Calu-3 [6])	relative viability EC50 (HepG2 [7])	relative viability EC50 (U2OS [8])	relative viability EC50 (Caco-2 [9])	relative viability EC50 (Vero E6 [10])	cell viability (Calu-3 [11]; 1 nM)	cell viability (Calu-3 [11]; 10 nM)	cell viability (Calu-3 [11]; 100 nM)	cell viability (Calu-3 [11]; 1000 nM)	cell viability (Calu-3 [11]; 10000 nM)	cell viability (HepG2 [12]; 1 nM)	cell viability (HepG2 [12]; 10 nM)	cell viability (HepG2 [12]; 100 nM)	cell viability (HepG2 [12]; 1000 nM)	cell viability (HepG2 [12]; 10000 nM)	cell viability (U2OS [13]; 1 nM)	cell viability (U2OS [13]; 10 nM)	cell viability (U2OS [13]; 100 nM)	cell viability (U2OS [13]; 1000 nM)	cell viability (U2OS [13]; 10000 nM)	cell viability (Caco-2 [14]; 1 nM)	cell viability (Caco-2 [14]; 10 nM)	cell viability (Caco-2 [14]; 100 nM)	cell viability (Caco-2 [14]; 1000 nM)	cell viability (Caco-2 [14]; 10000 nM)	cell viability (Vero E6 [15]; 1 nM)	cell viability (Vero E6 [15]; 10 nM)	cell viability (Vero E6 [15]; 100 nM)	cell viability (Vero E6 [15]; 1000 nM)	cell viability (Vero E6 [15]; 10000 nM)
CCO[C@@H]1OC(=O)C[C@@H]1NC(=O)[C@@H]1CCCN1C(=O)[C@@H](NC(=O)c1ccc(N)c(Cl)c1)C(C)(C)C [VX-765]	0	0.9	0	0.3	0	> 10 µM	> 10 µM	> 10 µM	> 10 µM	> 10 µM	111%	93.8%	90.5%	95.5%	98.6%	95.5%	103%	88.4%	88.3%	92.2%	98.2%	104%	94.7%	100%	98.8%	97.7%	104%	117%	98%	86%	98.8%	102%	95.2%	93.9%	100%
NC(=O)c1ncn([C@@H]2O[C@H](CO)[C@@H](O)[C@H]2O)c1N [acadesine]	0	0	0	0	0	> 10 µM	> 10 µM	> 10 µM	> 10 µM	> 10 µM	96.6%	94.9%	84.2%	97.8%	90.8%	98.1%	96.1%	105%	97.9%	102%	100%	91.8%	96.5%	97.9%	102%	96.7%	98.1%	86.4%	92.7%	95.7%	101%	98%	100%	94.4%	97.2%
CC(=O)NCCCS(=O)(=O)O [acamprosate]	0	0	0	0	0	> 10 µM	> 10 µM	> 10 µM	> 10 µM	> 10 µM	104%	102%	97.9%	105%	103%	111%	98.1%	94.5%	90.2%	110%	95.7%	99.3%	99.3%	102%	99.2%	109%	102%	101%	96.3%	114%	102%	99.5%	106%	103%	103%
CCCCC(CC)CNC(=N)NC(=N)NCCCCCCNC(=N)NC(=N)NCC(CC)CCCC (stereo not given) [alexidine]	0	11.2	6.8	5.4	3.1	> 10 µM	0.964 µM	2.39 µM	3.22 µM	3.73 µM	97.1%	105%	104%	103%	105%	106%	93.2%	105%	50.7%	6%	93.6%	91.8%	99.3%	91%	3.9%	94.6%	99.3%	105%	101%	1.2%	108%	106%	93.3%	109%	32.8%
C=CC[C@]1(O)CC[C@H]2[C@@H]3CCC4=CC(=O)CCC4=C3C=C[C@@]21C [altrenogest]	0	0	0	0	0	> 10 µM	> 10 µM	> 10 µM	> 10 µM	> 10 µM	107%	88%	97.6%	99%	105%	107%	95.9%	93.6%	90.2%	101%	92.7%	97.2%	96.1%	97.7%	104%	102%	98.1%	99%	107%	96.5%	97%	97.5%	93.2%	89.5%	104%
NC[C@@H](O)CC(=O)O [aminohydroxybutyric-acid]	0	0	0	0	0	> 10 µM	> 10 µM	> 10 µM	> 10 µM	> 10 µM	98.4%	103%	97.7%	95.1%	104%	102%	91.7%	108%	97.2%	104%	93.6%	99.7%	96.4%	106%	102%	92.1%	91%	86.2%	103%	105%	98.6%	91.9%	93.3%	92.4%	102%
COc1ccc(C2CNC(=O)NC2)cc1O[C@H]1C[C@@H]2CC[C@H]1C2 [atizoram]	0	1	0	0	0.1	> 10 µM	> 10 µM	> 10 µM	> 10 µM	> 10 µM	103%	102%	96.3%	108%	108%	99%	107%	102%	94.1%	82.8%	106%	96.5%	101%	102%	103%	95.3%	96.9%	98.6%	96.6%	102%	96.5%	105%	100%	99.5%	87.4%
NCCc1cc[nH]n1 [betazole]	0	0	0	0	0	> 10 µM	> 10 µM	> 10 µM	> 10 µM	> 10 µM	97.2%	102%	97.2%	101%	109%	100%	106%	92.9%	98%	125%	102%	99.5%	105%	102%	108%	89%	91.4%	84.3%	92.6%	107%	94.4%	104%	92.8%	106%	106%
COc1ccc(CCNCC(O)COc2cccc(C)c2)cc1OC (stereo not given) [bevantolol]	0	0	0	0	0	> 10 µM	> 10 µM	> 10 µM	> 10 µM	> 10 µM	107%	103%	102%	113%	96%	90.1%	87.2%	99.7%	89.8%	92.1%	101%	95.9%	101%	101%	99.8%	94.3%	111%	103%	90.3%	104%	98.5%	95.8%	94.7%	90.1%	98.7%
Nc1c(CC(=O)O)cccc1C(=O)c1ccc(Br)cc1 [bromfenac]	0	0	0	0	0	> 10 µM	> 10 µM	> 10 µM	> 10 µM	> 10 µM	95.7%	97%	104%	84.2%	97.7%	96.3%	97.4%	97.2%	104%	104%	100%	98.6%	103%	99.4%	96%	88.1%	94.3%	93.4%	95.7%	101%	95.4%	103%	98.1%	97.3%	105%
CCCCOC(=O)c1ccc(N)cc1 [butamben]	0	0	0	0	0.7	> 10 µM	> 10 µM	> 10 µM	> 10 µM	> 10 µM	98.6%	96.7%	94.2%	93.7%	94.1%	104%	93.6%	124%	112%	124%	98.7%	96.5%	102%	94.9%	103%	108%	94%	95.6%	90.9%	97.5%	94.2%	102%	96.3%	92.8%	82.3%
